Source: PMC9329436, “Optimization of the 4-anilinoquin(az)oline scaffold as epidermal growth factor receptor (EGFR) inhibitors for chordoma utilizing a toxicology profiling assay platform” (Scientific Reports, 2022)
Like-named read-outs stand apart in the source and are kept apart here.

What was measured:
Assay type in all cases: biochemical
[1] = target: 320 wild-type protein kinases (Homo sapiens, UniProt Q9UIK4); settings: singlicate
Description: (§1) Table S4. Profiling of two compounds at two concentrations against 320 wild-type protein kinases; singlicate measurement; Residual activities (% of control).

[2] = target: 320 wild-type protein kinases (Homo sapiens, UniProt P42345); settings: mTOR, singlicate
Description: as §1

[3] = target: 320 wild-type protein kinases (Homo sapiens, UniProt P15056); settings: B-RAF, singlicate
Chain of 320 wild-type protein kinases (Homo sapiens, UniProt P15056) (P15056 whole entry): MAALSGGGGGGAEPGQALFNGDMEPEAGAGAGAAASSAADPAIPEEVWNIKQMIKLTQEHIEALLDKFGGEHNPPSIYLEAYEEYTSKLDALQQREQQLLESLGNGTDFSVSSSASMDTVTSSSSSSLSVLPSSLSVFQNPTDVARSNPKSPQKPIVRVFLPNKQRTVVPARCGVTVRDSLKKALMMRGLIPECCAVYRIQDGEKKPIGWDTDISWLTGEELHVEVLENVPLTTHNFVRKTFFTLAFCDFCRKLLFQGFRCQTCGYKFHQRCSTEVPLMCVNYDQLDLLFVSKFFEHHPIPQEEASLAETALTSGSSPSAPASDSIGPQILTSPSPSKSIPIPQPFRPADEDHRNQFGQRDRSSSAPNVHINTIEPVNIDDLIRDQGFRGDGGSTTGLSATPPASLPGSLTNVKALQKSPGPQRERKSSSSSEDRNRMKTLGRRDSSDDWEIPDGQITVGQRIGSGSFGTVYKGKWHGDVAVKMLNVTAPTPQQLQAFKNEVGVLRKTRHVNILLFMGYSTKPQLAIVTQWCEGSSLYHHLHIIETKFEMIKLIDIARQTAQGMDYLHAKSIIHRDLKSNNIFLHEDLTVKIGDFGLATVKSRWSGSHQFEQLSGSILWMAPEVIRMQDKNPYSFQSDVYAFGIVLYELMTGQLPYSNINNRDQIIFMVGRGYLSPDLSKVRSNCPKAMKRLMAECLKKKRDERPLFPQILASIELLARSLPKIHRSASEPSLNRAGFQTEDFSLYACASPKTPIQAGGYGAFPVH
Description: as §1

[4] = target: T1, 320 wild-type protein kinases (Homo sapiens, UniProt Q13976); settings: kinase PRKG1, singlicate
T1 sequence (Q13976 1-671): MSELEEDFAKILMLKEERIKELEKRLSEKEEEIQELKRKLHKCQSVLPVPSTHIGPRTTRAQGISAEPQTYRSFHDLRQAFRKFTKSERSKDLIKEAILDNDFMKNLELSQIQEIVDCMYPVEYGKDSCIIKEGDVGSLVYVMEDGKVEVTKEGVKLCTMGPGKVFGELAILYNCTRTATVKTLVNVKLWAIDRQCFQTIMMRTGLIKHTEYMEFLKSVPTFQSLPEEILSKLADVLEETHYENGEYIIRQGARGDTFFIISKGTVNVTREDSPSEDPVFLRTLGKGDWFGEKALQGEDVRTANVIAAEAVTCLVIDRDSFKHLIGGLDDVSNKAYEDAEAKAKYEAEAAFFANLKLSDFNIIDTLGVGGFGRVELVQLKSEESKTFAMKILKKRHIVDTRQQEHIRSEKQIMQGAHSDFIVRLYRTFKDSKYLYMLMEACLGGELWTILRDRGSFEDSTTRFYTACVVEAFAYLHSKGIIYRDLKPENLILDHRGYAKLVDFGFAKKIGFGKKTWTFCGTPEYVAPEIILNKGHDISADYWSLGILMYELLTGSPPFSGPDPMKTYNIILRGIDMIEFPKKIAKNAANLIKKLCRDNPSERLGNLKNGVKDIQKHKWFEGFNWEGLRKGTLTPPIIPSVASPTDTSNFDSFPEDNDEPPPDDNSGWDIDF
Description: as §1

[5] = target: T2, 320 wild-type protein kinases (Homo sapiens, UniProt O15111); settings: IKK-alpha, singlicate
T2 sequence (O15111 1-745): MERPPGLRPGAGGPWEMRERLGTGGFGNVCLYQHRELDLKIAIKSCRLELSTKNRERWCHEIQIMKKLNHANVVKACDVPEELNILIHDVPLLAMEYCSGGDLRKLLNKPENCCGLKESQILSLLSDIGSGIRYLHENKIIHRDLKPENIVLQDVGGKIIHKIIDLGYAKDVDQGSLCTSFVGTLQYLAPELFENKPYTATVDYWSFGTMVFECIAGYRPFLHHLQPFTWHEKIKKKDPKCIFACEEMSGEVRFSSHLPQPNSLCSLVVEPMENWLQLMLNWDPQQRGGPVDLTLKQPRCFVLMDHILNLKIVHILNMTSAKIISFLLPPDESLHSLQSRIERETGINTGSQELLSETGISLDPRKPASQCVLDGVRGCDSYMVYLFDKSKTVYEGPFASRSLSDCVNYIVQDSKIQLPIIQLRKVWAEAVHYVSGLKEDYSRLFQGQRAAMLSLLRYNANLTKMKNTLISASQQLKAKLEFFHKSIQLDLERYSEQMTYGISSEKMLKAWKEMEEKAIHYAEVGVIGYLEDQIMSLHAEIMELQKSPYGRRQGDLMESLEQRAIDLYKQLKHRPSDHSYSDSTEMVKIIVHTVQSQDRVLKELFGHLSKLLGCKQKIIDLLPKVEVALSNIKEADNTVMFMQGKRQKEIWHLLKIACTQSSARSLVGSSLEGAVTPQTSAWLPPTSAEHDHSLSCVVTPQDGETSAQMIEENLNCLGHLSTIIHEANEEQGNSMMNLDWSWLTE
Description: as §1

[6] = target: T3, 320 wild-type protein kinases (Homo sapiens, UniProt P42681); settings: kinase TXK, singlicate
T3 sequence (P42681 1-527): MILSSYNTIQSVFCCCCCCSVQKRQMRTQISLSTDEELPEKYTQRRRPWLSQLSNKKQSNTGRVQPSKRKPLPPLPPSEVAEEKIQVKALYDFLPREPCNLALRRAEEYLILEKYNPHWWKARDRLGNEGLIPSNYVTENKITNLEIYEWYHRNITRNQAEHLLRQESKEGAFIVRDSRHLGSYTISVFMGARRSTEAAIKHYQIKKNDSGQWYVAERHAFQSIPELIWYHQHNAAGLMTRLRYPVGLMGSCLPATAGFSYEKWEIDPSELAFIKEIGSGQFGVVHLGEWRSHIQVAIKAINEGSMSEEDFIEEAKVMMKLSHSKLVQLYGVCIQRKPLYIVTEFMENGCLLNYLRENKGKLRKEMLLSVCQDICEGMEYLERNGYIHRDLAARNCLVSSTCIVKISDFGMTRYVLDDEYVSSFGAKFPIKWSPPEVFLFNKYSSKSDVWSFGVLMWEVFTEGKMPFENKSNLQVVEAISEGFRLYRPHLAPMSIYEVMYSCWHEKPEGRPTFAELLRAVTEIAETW
Description: as §1

[7] = target: 320 wild-type protein kinases (Homo sapiens, UniProt P07947); settings: kinase YES, singlicate
Chain of 320 wild-type protein kinases (Homo sapiens, UniProt P07947) (P07947 whole entry): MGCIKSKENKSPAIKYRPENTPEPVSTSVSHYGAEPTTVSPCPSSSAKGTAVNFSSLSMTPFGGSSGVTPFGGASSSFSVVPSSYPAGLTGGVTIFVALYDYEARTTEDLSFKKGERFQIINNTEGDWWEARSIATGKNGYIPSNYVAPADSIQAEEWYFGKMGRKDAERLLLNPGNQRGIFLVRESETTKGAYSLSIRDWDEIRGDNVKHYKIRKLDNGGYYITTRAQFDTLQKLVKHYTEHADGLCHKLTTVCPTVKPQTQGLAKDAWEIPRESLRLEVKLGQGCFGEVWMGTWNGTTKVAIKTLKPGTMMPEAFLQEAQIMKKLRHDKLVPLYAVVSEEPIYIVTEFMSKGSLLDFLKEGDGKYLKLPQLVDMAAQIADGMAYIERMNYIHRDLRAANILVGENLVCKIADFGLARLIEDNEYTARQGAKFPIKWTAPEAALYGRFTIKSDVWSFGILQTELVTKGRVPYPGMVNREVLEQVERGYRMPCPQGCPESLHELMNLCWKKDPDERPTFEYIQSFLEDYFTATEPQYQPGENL
Description: as §1

[8] = target: 320 wild-type protein kinases (Homo sapiens, UniProt P49674); settings: CK1-epsilon, singlicate
Chain of 320 wild-type protein kinases (Homo sapiens, UniProt P49674) (P49674 whole entry): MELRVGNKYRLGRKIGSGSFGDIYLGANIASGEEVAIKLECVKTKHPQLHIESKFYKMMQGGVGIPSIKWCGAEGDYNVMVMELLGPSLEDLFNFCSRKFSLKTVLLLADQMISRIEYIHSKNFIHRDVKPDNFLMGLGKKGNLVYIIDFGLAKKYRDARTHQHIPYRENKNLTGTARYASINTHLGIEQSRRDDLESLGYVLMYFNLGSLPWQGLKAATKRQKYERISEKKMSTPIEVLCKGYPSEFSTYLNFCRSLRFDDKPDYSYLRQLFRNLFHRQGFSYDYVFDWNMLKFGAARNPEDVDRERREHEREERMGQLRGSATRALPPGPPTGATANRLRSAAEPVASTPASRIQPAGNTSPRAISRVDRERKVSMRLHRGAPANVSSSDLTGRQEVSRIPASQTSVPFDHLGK
Description: as §1

[9] = target: 320 wild-type protein kinases (Homo sapiens, UniProt P49840); settings: GSK3-alpha, singlicate
Chain of 320 wild-type protein kinases (Homo sapiens, UniProt P49840) (P49840 whole entry): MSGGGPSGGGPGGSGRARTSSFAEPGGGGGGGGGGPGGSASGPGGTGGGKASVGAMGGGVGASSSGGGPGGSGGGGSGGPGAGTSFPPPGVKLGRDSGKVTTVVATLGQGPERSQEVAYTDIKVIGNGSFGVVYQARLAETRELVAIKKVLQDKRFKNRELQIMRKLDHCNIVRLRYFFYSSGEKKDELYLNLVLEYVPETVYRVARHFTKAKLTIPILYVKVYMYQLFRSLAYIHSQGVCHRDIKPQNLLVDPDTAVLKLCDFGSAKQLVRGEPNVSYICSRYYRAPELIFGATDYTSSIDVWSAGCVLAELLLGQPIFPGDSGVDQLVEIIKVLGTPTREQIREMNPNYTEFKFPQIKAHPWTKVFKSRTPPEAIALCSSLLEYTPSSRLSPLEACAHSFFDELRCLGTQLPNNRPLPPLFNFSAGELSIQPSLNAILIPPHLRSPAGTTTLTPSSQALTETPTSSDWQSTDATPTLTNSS
Description: as §1

Chain of 320 wild-type protein kinases (Homo sapiens, UniProt Q9UIK4) (Q9UIK4 whole entry): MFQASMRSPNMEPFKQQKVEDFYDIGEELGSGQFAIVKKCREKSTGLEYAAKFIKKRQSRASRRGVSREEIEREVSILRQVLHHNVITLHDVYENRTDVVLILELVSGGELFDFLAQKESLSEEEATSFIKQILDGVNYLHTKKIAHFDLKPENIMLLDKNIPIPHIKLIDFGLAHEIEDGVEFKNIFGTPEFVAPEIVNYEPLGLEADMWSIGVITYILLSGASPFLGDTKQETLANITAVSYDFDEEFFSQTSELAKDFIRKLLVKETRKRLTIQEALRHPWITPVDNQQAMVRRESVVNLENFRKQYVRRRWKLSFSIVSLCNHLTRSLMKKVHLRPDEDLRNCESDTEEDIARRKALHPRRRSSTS

SMILES | Residual activity ([1]; DAPK2, 1.0E-06 M) | Residual activity ([1]; DAPK2, 1.0E-07 M) | Residual activity ([2]; 1.0E-06 M) | Residual activity ([2]; 1.0E-07 M) | Residual activity ([3]; 1.0E-06 M) | Residual activity ([3]; 1.0E-07 M) | Residual activity, PRKG1 ([4]; assay conc. 1.0E-06 M) | Residual activity, PRKG1 ([4]; assay conc. 1.0E-07 M) | Residual activity ([5]; 1.0E-06 M) | Residual activity ([5]; 1.0E-07 M) | Residual activity, TXK ([6]; assay conc. 1.0E-06 M) | Residual activity, TXK ([6]; assay conc. 1.0E-07 M) | Residual activity, YES ([7]; assay conc. 1.0E-06 M) | Residual activity, YES ([7]; assay conc. 1.0E-07 M) | Residual activity ([8]; 1.0E-06 M) | Residual activity ([8]; 1.0E-07 M) | Residual activity ([9]; 1.0E-06 M) | Residual activity ([9]; 1.0E-07 M)
C#Cc1cc(Nc2ncnc3cc(I)ccc23)ccc1Cl [Compound 41] | 118 % of control | 113 % of control | 84 % of control | 97 % of control | 115 % of control | 145 % of control | 72 % of control | 88 % of control | 100 % of control | 109 % of control | 79 % of control | 90 % of control | 83 % of control | 101 % of control | 118 % of control | 124 % of control | 143 % of control | 148 % of control
C#Cc1cc(Nc2ncnc3cc(OC)c(OC)cc23)ccc1Cl [Compound 45] | 101 % of control | 132 % of control | 91 % of control | 106 % of control | 108 % of control | 112 % of control | 101 % of control | 106 % of control | 95 % of control | 106 % of control | 52 % of control | 91 % of control | 77 % of control | 100 % of control | 120 % of control | 124 % of control | 122 % of control | 136 % of control
